Assay results taken from ChEMBL document CHEMBL6127088, “Novel 2-aminothiazole analogues both as polymyxin E synergist and antimicrobial agent against multidrug-resistant Gram-positive bacteria” (2024).
Values after ≈ are worked out from the molar mass of the structure shown. Active and inactive are the calls of the source. The rule behind the calls is not given here.

Assays:
Pseudomonas aeruginosa [1] = assay: Synergistic antibacterial activity against Pseudomonas aeruginosa […] assessed as fold change in polymyxin-E MIC incubated for 18 hrs by broth microdilution method relative to polymyxin-E alone; type: functional
Pseudomonas aeruginosa [2] = assay: Synergistic antibacterial activity against Pseudomonas aeruginosa PAE 3887 assessed as fractional inhibitory concentration index at 4 microg/ml incubated for 18 to 20 hrs by chequerboard assay; type: functional; conditions: dose 4 µg/ml; time 18-20 hrs
Cell membrane [3] = assay: Induction of outer membrane disruption in Acinetobacter baumannii ATCC 19606 assessed as decrease in fluorescence intensity in presence of polymyxin-E by NPN dye based fluorescence analysis; type: subcellular
Klebsiella pneumoniae [4] = assay: Synergistic antibacterial activity against Klebsiella pneumoniae KPN 943 assessed as polymyxin-E MIC at 4 microg/ml incubated for 18 hrs by broth microdilution method; type: functional; conditions: dose 4 µg/ml
Klebsiella pneumoniae [5] = assay: Synergistic antibacterial activity against Klebsiella pneumoniae KPN 1617 assessed as fractional inhibitory concentration index at 4 microg/ml incubated for 18 to 20 hrs by chequerboard assay; type: functional; conditions: dose 4 µg/ml; time 18-20 hrs
Pseudomonas aeruginosa [6] = assay: Synergistic antibacterial activity against Pseudomonas aeruginosa PAE 1051 assessed as fractional inhibitory concentration index at 4 microg/ml incubated for 18 to 20 hrs by chequerboard assay; type: functional; conditions: dose 4 µg/ml; time 18-20 hrs
Klebsiella pneumoniae [7] = assay: Synergistic antibacterial activity against Klebsiella pneumoniae KPN 1617 assessed as fold change in polymyxin-E MIC incubated for 18 hrs by broth microdilution method relative to polymyxin-E alone; type: functional
Acinetobacter baumannii [8] = assay: Antibacterial activity against Acinetobacter baumannii ATCC 19606 infected in female Balb/c mouse model assessed as increase in animal survival at 64 mg/kg, iv administered every 12 hrs and measured for 7 days; type: functional, organism-based
[9] = tested on: Lacticaseibacillus rhamnosus; assay: Antibacterial activity against Lactobacillus rhamnosus assessed as inhibition of bacterial growth incubated for 18 hrs by broth microdilution method; type: functional
Staphylococcus aureus [10] = assay: Antibacterial activity against methicillin-resistant Staphylococcus aureus ATCC 43300 assessed as inhibition of bacterial growth at 0.5 to 1 microg/ml incubated for 0 to 8 hrs by time-kill assay; type: functional, organism-based; conditions: dose 0.5-1 µg/ml, time 0-8 hrs
Acinetobacter baumannii [11] = assay: Synergistic antibacterial activity against Acinetobacter baumannii Ab 1611 assessed as polymyxin-E MIC at 4 microg/ml incubated for 18 hrs by broth microdilution method; type: functional; conditions: dose 4 µg/ml
Acinetobacter baumannii [12] = assay: Antibacterial activity against Acinetobacter baumannii ATCC 19606 assessed as inhibition of bacterial growth at 4 microg/ml incubated for overnight in presence of 0.25 microg/ml polymyxin-E by time-kill assay; type: functional, organism-based; conditions: dose 4.0 µg/ml
Staphylococcus aureus [13] = assay: Antibacterial activity against methicillin-resistant Staphylococcus aureus ATCC 43300 assessed as inhibition of bacterial growth at 2 microg/ml measured after 24 hrs by time-kill assay; type: functional; parameters: scale not given: the % may be the effect or the level left; conditions: dose 2 µg/ml
Klebsiella pneumoniae [14] = assay: Synergistic antibacterial activity against Klebsiella pneumoniae SIPI-KPN-1712 assessed as polymyxin-E MIC at 4 microg/ml incubated for 18 hrs by broth microdilution method; type: functional; conditions: dose 4 µg/ml
Acinetobacter baumannii [15] = assay: Synergistic antibacterial activity against Acinetobacter baumannii ATCC 19606 assessed as fractional inhibitory concentration index at 4 microg/ml incubated for 18 to 20 hrs by chequerboard assay; type: functional; conditions: dose 4 µg/ml; time 18-20 hrs
[16] = tested on: Mycolicibacterium smegmatis; assay: Antibacterial activity against Mycobacterium smegmatis MC 2155 assessed as inhibition of bacterial growth incubated for 18 hrs by broth microdilution method; type: functional
Pseudomonas aeruginosa [17] = assay: Synergistic antibacterial activity against Pseudomonas aeruginosa PAE 1051 assessed as fold change in polymyxin-E MIC incubated for 18 hrs by broth microdilution method relative to polymyxin-E alone; type: functional
Bacillus subtilis = assay: Antibacterial activity against Bacillus subtilis ATCC 6633 assessed as inhibition of bacterial growth incubated for 18 hrs by broth microdilution method; type: functional
Staphylococcus aureus [18] = assay: Antibacterial activity against Staphylococcus aureus S1-1-7 assessed as inhibition of bacterial growth incubated for 18 hrs by broth microdilution method; type: functional
Acinetobacter baumannii [19] = assay: Synergistic antibacterial activity against Acinetobacter baumannii Ab 1613 assessed as polymyxin-E MIC at 4 microg/ml incubated for 18 hrs by broth microdilution method; type: functional; conditions: dose 4 µg/ml
Klebsiella pneumoniae [20] = assay: Synergistic antibacterial activity against Klebsiella pneumoniae KPN 943 assessed as fractional inhibitory concentration index at 4 microg/ml incubated for 18 to 20 hrs by chequerboard assay; type: functional; conditions: dose 4 µg/ml; time 18-20 hrs
[21] = tested on: Lactiplantibacillus plantarum; assay: Antibacterial activity against Lactobacillus plantarum assessed as inhibition of bacterial growth incubated for 18 hrs by broth microdilution method; type: functional
Pseudomonas aeruginosa [22] = assay: Synergistic antibacterial activity against Pseudomonas aeruginosa PAE 3887 assessed as polymyxin-E MIC at 4 microg/ml incubated for 18 hrs by broth microdilution method; type: functional; conditions: dose 4 µg/ml
Acinetobacter baumannii [23] = assay: Synergistic antibacterial activity against Acinetobacter baumannii ATCC 19606 assessed as polymyxin-E MIC at 4 microg/ml incubated for 18 hrs by broth microdilution method; type: functional; conditions: dose 4 µg/ml
Pseudomonas aeruginosa [24] = assay: Antibacterial activity against Pseudomonas aeruginosa PAE 1051 incubated for 18 hrs by broth microdilution method; type: functional
Cell membrane [25] = assay: Disruption of cell membrane integrity in Acinetobacter baumannii ATCC 19606 assessed as cellular damage at 4 microg/ml incubated for 1 hrs by TEM analysis; conditions: dose 4.0 µg/ml
Klebsiella pneumoniae [26] = assay: Synergistic antibacterial activity against Klebsiella pneumoniae KPN 1617 assessed as polymyxin-E MIC at 4 microg/ml incubated for 18 hrs by broth microdilution method; type: functional; conditions: dose 4 µg/ml
Acinetobacter baumannii [27] = assay: Antimicrobial activity against Acinetobacter baumannii ATCC 19606 incubated for 18 hrs by broth microdilution method; type: functional
[28] = tested on: Mycolicibacterium smegmatis; assay: Antibacterial activity against Mycobacterium smegmatis ARC 700044 assessed as inhibition of bacterial growth incubated for 18 hrs by broth microdilution method; type: functional
Pseudomonas aeruginosa [29] = assay: Synergistic antibacterial activity against Pseudomonas aeruginosa […] assessed as fractional inhibitory concentration index at 4 microg/ml incubated for 18 to 20 hrs by chequerboard assay; type: functional; conditions: dose 4 µg/ml; time 18-20 hrs
Acinetobacter baumannii [30] = assay: Synergistic antibacterial activity against Acinetobacter baumannii Ab 1611 assessed as fractional inhibitory concentration index at 4 microg/ml incubated for 18 to 20 hrs by chequerboard assay; type: functional; conditions: dose 4 µg/ml; time 18-20 hrs
Enterococcus faecalis = assay: Antibacterial activity against Enterococcus faecalis ATCC 51299 assessed as inhibition of bacterial growth incubated for 18 hrs by broth microdilution method; type: functional
Staphylococcus aureus [31] = assay: Antibacterial activity against Staphylococcus aureus S1-1-1 assessed as inhibition of bacterial growth incubated for 18 hrs by broth microdilution method; type: functional
Cell membrane [32] = assay: Disruption of cell membrane integrity in Acinetobacter baumannii ATCC 19606 assessed as outer membrane expansion at 4 microg/ml incubated for 1 hrs by TEM analysis; type: subcellular; conditions: dose 4.0 µg/ml
Acinetobacter baumannii [33] = assay: Antibacterial activity against Acinetobacter baumannii ATCC 19606 assessed as inhibition of bacterial growth at 4 microg/ml incubated for overnight in presence of 0.25 microg/ml polymyxin-E and measured with in 8 hrs by time-kill assay; type: functional, organism-based; conditions: dose 4.0 µg/ml
Acinetobacter baumannii [34] = assay: Antibacterial activity against Acinetobacter baumannii ATCC 19606 assessed as inhibition of bacterial growth at 4 microg/ml incubated for overnight in presence of 0.25 microg/ml polymyxin-E and measured at 24 hrs by time-kill assay; type: functional, organism-based; conditions: dose 4.0 µg/ml

## C/C(=N\Nc1ccccn1)c1csc(Nc2cc(F)cc(C(F)(F)F)c2)n1
Pseudomonas aeruginosa [1]
  fold change (FC): 2
Pseudomonas aeruginosa [2]
  fractional inhibitory concentration index (FICI): 0.094
Cell membrane [3]
  Activity: Active
Klebsiella pneumoniae [4]
  MIC: 0.125 µg/mL
Klebsiella pneumoniae [5]
  fractional inhibitory concentration index (FICI): 0.094
Pseudomonas aeruginosa [6]
  fractional inhibitory concentration index (FICI): 0.281
Klebsiella pneumoniae [7]
  fold change (FC): 16
Acinetobacter baumannii [8]
  Activity: inactive
[9]
  MIC: 0.5 µg/mL (≈ 1.26 µM)
Staphylococcus aureus [10]
  Activity: Active
Acinetobacter baumannii [11]
  MIC: 0.063 µg/mL
Acinetobacter baumannii [12]
  Activity: Active
Staphylococcus aureus [13]
  Activity: 100%
Klebsiella pneumoniae [14]
  MIC: 2 µg/mL
Acinetobacter baumannii [15]
  fractional inhibitory concentration index (FICI): 0.094
[16]
  MIC: 1 µg/mL (≈ 2.53 µM)
Pseudomonas aeruginosa [17]
  fold change (FC): 4
Bacillus subtilis
  MIC: 2 µg/mL (≈ 5.06 µM)
Staphylococcus aureus [18]
  MIC: 2 µg/mL (≈ 5.06 µM)
Acinetobacter baumannii [19]
  MIC: 0.125 µg/mL
Klebsiella pneumoniae [20]
  fractional inhibitory concentration index (FICI): 0.062
[21]
  MIC: 1 µg/mL (≈ 2.53 µM)
Pseudomonas aeruginosa [22]
  MIC: 0.125 µg/mL
Acinetobacter baumannii [23]
  MIC: 0.031 µg/mL
Pseudomonas aeruginosa [24]
  MIC: > 128 µg/mL
Cell membrane [25]
  Activity: Active
Klebsiella pneumoniae [26]
  MIC: 0.5 µg/mL
Acinetobacter baumannii [27]
  MIC: 128 µg/mL (≈ 324 µM)
[28]
  MIC: 2 µg/mL (≈ 5.06 µM)
Pseudomonas aeruginosa [29]
  fractional inhibitory concentration index (FICI): 0.531
Acinetobacter baumannii [30]
  fractional inhibitory concentration index (FICI): 0.094
Enterococcus faecalis
  MIC: 2 µg/mL (≈ 5.06 µM)
Staphylococcus aureus [31]
  MIC: 1 µg/mL (≈ 2.53 µM)
Cell membrane [32]
  Activity: Active
Acinetobacter baumannii [33]
  Activity: Active
Acinetobacter baumannii [34]
  Activity: Active
